Test results published in the NIST ThermoML archive (doi:10.1016/j.jct.2011.01.014).

Assay: xn = mol fraction of the nth substance listed
Conditions: 101 kPa, Liquid; for mass density: Vibrating tube method; for speed of sound: sound velocity cell

CC(=O)[O-].[NH3+]CCO [2-hydroxyethylammonium acetate] + CO
Conditions	mass density [kg/m3]	speed of sound [m/s]
288.15 K, x1 = 0.0492	850.323	1214.8
288.15 K, x1 = 0.0951	891.619	1276.8
288.15 K, x1 = 0.1987	958.564	1390.3
288.15 K, x1 = 0.29	1002.52	1476.1
288.15 K, x1 = 0.3786	1034.79	1545.4
288.15 K, x1 = 0.4825	1066.13	1618.4
288.15 K, x1 = 0.6007	1093.45	1688
288.15 K, x1 = 0.6711	1107.68	1725.1
288.15 K, x1 = 0.7797	1126.68	1740.8
288.15 K, x1 = 0.8297	1134.06	1797.8
288.15 K, x1 = 0.9328	1147.97	1795.3
288.15 K, x1 = 1	1154.7	1817.2
290.65 K, x1 = 0.0492	848.152	1207.2
290.65 K, x1 = 0.0951	889.567	1269.4
290.65 K, x1 = 0.1987	956.698	1383.4
290.65 K, x1 = 0.29	1000.78	1469.5
290.65 K, x1 = 0.3786	1033.16	1538.9
290.65 K, x1 = 0.4825	1064.58	1612.3
290.65 K, x1 = 0.6007	1091.92	1681.6
290.65 K, x1 = 0.6711	1106.19	1718.6
290.65 K, x1 = 0.7797	1125.18	1734.6
290.65 K, x1 = 0.8297	1132.65	1790.7
290.65 K, x1 = 0.9328	1146.53	1787.9
290.65 K, x1 = 1	1153.28	1810
293.15 K, x1 = 0.0492	845.97	1199.8
293.15 K, x1 = 0.0951	887.505	1262.1
293.15 K, x1 = 0.1987	954.823	1376.3
293.15 K, x1 = 0.29	999.035	1462.8
293.15 K, x1 = 0.3786	1031.5	1532.4
293.15 K, x1 = 0.4825	1063.02	1606.2
293.15 K, x1 = 0.6007	1090.45	1675.2
293.15 K, x1 = 0.6711	1104.7	1712.1
293.15 K, x1 = 0.7797	1123.69	1728.6
293.15 K, x1 = 0.8297	1131.24	1784
293.15 K, x1 = 0.9328	1145.1	1781.1
293.15 K, x1 = 1	1151.87	1803.2
295.65 K, x1 = 0.0492	843.786	1192.1
295.65 K, x1 = 0.0951	885.441	1254.6
295.65 K, x1 = 0.1987	952.95	1369.2
295.65 K, x1 = 0.29	997.283	1456
295.65 K, x1 = 0.3786	1029.84	1525.9
295.65 K, x1 = 0.4825	1061.45	1600
295.65 K, x1 = 0.6007	1088.98	1669.1
295.65 K, x1 = 0.6711	1103.21	1705.8
295.65 K, x1 = 0.7797	1122.2	1722.7
295.65 K, x1 = 0.8297	1129.83	1777.5
295.65 K, x1 = 0.9328	1143.67	1774.5
295.65 K, x1 = 1	1150.45	1796.8
298.15 K, x1 = 0.0492	841.599	1184.3
298.15 K, x1 = 0.0951	883.376	1247
298.15 K, x1 = 0.1987	951.074	1362.2
298.15 K, x1 = 0.29	995.529	1449.3
298.15 K, x1 = 0.3786	1028.18	1519.5
298.15 K, x1 = 0.4825	1059.89	1593.9
298.15 K, x1 = 0.6007	1087.51	1663
298.15 K, x1 = 0.6711	1101.72	1699.7
298.15 K, x1 = 0.7797	1120.71	1717
298.15 K, x1 = 0.8297	1128.41	1771.3
298.15 K, x1 = 0.9328	1142.24	1768.2
298.15 K, x1 = 1	1149.04	1790.7
300.65 K, x1 = 0.0492	839.407	1176.5
300.65 K, x1 = 0.0951	881.305	1239.5
300.65 K, x1 = 0.1987	949.197	1355.1
300.65 K, x1 = 0.29	993.775	1442.7
300.65 K, x1 = 0.3786	1026.52	1513.1
300.65 K, x1 = 0.4825	1058.32	1587.8
300.65 K, x1 = 0.6007	1086.03	1657
300.65 K, x1 = 0.6711	1100.3	1693.7
300.65 K, x1 = 0.7797	1119.26	1711.3
300.65 K, x1 = 0.8297	1127	1765.3
300.65 K, x1 = 0.9328	1140.81	1762.1
300.65 K, x1 = 1	1147.63	1784.8
303.15 K, x1 = 0.0492	837.209	1168.8
303.15 K, x1 = 0.0951	879.233	1232
303.15 K, x1 = 0.1987	947.318	1348.1
303.15 K, x1 = 0.29	992.018	1436
303.15 K, x1 = 0.3786	1024.86	1506.7
303.15 K, x1 = 0.4825	1056.74	1581.7
303.15 K, x1 = 0.6007	1084.54	1651
303.15 K, x1 = 0.6711	1098.87	1687.7
303.15 K, x1 = 0.7797	1117.84	1705.7
303.15 K, x1 = 0.8297	1125.59	1759.4
303.15 K, x1 = 0.9328	1139.38	1756.3
303.15 K, x1 = 1	1146.22	1779
305.65 K, x1 = 0.0492	835.006	–
305.65 K, x1 = 0.0951	877.153	–
305.65 K, x1 = 0.1987	945.436	–
305.65 K, x1 = 0.29	990.259	–
305.65 K, x1 = 0.3786	1023.19	–
305.65 K, x1 = 0.4825	1055.17	–
305.65 K, x1 = 0.6007	1083.06	–
305.65 K, x1 = 0.6711	1097.42	–
305.65 K, x1 = 0.7797	1116.4	–
305.65 K, x1 = 0.8297	1124.17	–
305.65 K, x1 = 0.9328	1137.95	–
305.65 K, x1 = 1	1144.8	–
